Where two headings read alike, the source gives them in different places.
Experiments:
astrocytes = assay: WST-1 viability under AAPH-induced oxidative stress, astrocytes; format: cell-based, human; settings: ½ × TPC (benperidol 5 μg/L, bromperidol 12.5 μg/L); AAPH 15 mmol/L
Method: (§1) WST-1 assay (Takara, Takara Bio Europe, Saint-Germain-en-Laye, France) was used to assess the effects of antipsychotics on the growth of HUVEC and astrocytes. The experiments were conducted as described previously. HUVEC were seeded at a density of 7500 cells, and astrocytes at 5000 cells per well on 96-well microplates and cultured for 24 h followed by treatment with compounds at ½ × TPCmax and TPCmax or pure medium as a control (v = 100 μL) for another 24 h (37 °C, 5% CO2). Subsequently, the cells were washed with culture medium (100 μL) and WST-1 reagent diluted in medium (10 μL of reagent + 90 μL of medium) was added. The plates were incubated at 37 °C in 5% CO2 for another 90 min for HUVEC and 60 min for astrocytes. The absorbance was read at 450 nm using a microplate reader (iMARK, Bio-Rad, Hercules, CA, USA). The cells viability was expressed as a percentage of the control samples which constituted 100% viability.
(§2) Moreover, the WST-1 assay was used to evaluate potential protective effects of antipsychotics on the growth of HUVEC and astrocytes under conditions of AAPH-induced oxidative stress. The experimental conditions were the same as in viability studies. AA at the final concentration of 10 μg/mL was used as an antioxidant control. After reaching the confluence, the antipsychotics were added at concentrations equaling ½ × TPCmax and TPCmax. After 1 h incubation under standard conditions, 50 μL AAPH was added to the wells containing tested compounds or AA. The AAPH concentration was chosen on the basis of preliminary experiments—17.5 mmol/L in HUVEC experiments, and 15.0 mmol/L in the case of astrocytes.

[1] = target: T1, recombinant human β-amyloid (1–42) (Homo sapiens, UniProt P05067); assay: Beta-amyloid aggregation, Thioflavin T fluorescence; format: biochemical
T1 construct: recombinant human β-amyloid (1–42; ultrapure); purchased Sigma-Aldrich (St. Louis, MO, USA)
Method: Aβ42 peptide was dissolved in DMSO and left to hydrate for a few minutes. The solution was centrifuged at 10,000 rpm for 5 min at 4 °C to separate any precipitated material. The solution at a concentration of 220 μmol/L was stored in small aliquots at a temperature of −30 °C and before each experiment it was restored at 37 °C for 15 min. Test samples containing Aβ42 solution at the final concentration of 20 μmol/L was incubated with antipsychotics at concentrations equaling their TPC and 1/2 × TPC (v = 10 µL). The final volume of the test samples was 100 μL. The positive control constituted a sample of Aβ42 peptide, whereas the negative control contained tannic acid at the final concentrations of 0.1 µmol/L and 10 µmol/L. The fibrillation reaction was set up by addition of thioflavin ThT dye at a concentration of 5 µmol/L. The fluorescence intensity was measured at room temperature with Ex/Em = 440 nm/484 nm (Synergy H1; BioTek, Winooski, VT, USA). The measurements of fluorescence intensity expressed as relative fluorescence units (RFU) were taken at 10, 30, 60 and 90 min and then after 24 and 48 h. The fluorescence intensity measured for control equaled 100% of Aβ aggregation and it was used to estimate the inhibitory properties of the tested antipsychotics.

[2] = target: T2, human plasma butyrylcholinesterase (Homo sapiens, UniProt P06276); assay: BuChE inhibition, modified Ellman's method; format: biochemical; settings: 200 µg/L; control 0.349 ± 0.013 A/min
T2 construct: The solution of plasma 200-fold diluted with 0.9% NaCl; from tissue; host or cells: citrated plasma from blood of healthy human donors
Method: (§3) The activity of both cholinesterases (AChE and BuChE) were assessed spectrophotometrically according to the Ellman’s method with some modifications by Worek et al.. This test development included experimental determination of the optimal testing conditions. For all measurements, 37 °C was used as the best temperature for enzymatic determinations in material of human origin.
(§4) The solution of plasma 200-fold diluted with 0.9% NaCl and solution of hemolyzed erythrocytes diluted 400-fold with 0.9% were incubated (37 °C, 15 min) with 5 μL DTNB (0.01 mol/L) and 10 μL tested compound at a wider range of concentration than the therapeutic range in order to assess the overall effect of the compound on human esterases (AChE and BuChE). The controls without antipsychotics, containing only DTNB and diluted plasma or diluted solution of hemolyzed erythrocytes, were prepared. […] The final volume of a sample was 500 μL. […] The maximal velocity of the reaction was determined on the basis of changes in absorbance over time.
(§5) AChE SI (selectivity index) was calculated by using the following formula: SI = IC50 of BuChE/IC50 of AChE. However, BuChE SI was defined as IC50 of AChE/IC50 of BuChE. Maximal velocity (Vmax) and the Michaelis constant (Km) were calculated with the use of linear regression—according to the Hanes–Woolf plot.

HUVEC cells = assay: WST-1 viability under AAPH-induced oxidative stress, HUVEC; format: cell-based, human; settings: AAPH 17.5 mmol/L, relative to pure medium control
Method: as §1, §2

AChE = AChE (Homo sapiens, UniProt P22303); assay: Synergism of antipsychotics with donepezil/rivastigmine (binary mixtures), AChE; settings: ComboSyn;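 note: antipsychotic concentration kept fixed across all measurements, selected from estimated therapeutic plasma levels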
BuChE [3] = target: BuChE (Homo sapiens, UniProt P06276); assay: Synergism of antipsychotics with donepezil/rivastigmine (binary mixtures), BuChE; settings: ComboSyn;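 note: combination index derived by median-effect analysis of combined drug effects on the cholinesterase, with values below 1 meaning synergism, exactly 1 additivity and above 1 antagonism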
[4] = target: T3, human erythrocyte acetylcholinesterase (Homo sapiens, UniProt P22303); assay: AChE inhibition, modified Ellman's method; format: biochemical; settings: 200 µg/L; control 0.236 ± 0.032 A/min
T3 construct: solution of hemolyzed erythrocytes diluted 400-fold; from tissue; host or cells: hemolyzed erythrocytes from blood of healthy human donors
Method: as §3, §4, §5

BuChE [5] = settings: read-out: IC50 BuChE, cited from earlier work
[6] = rivastigmine 5 μmol/L + antipsychotic at TPCmax

AChE, sequence (P22303 32-617 isoform P22303-2 limits assumed): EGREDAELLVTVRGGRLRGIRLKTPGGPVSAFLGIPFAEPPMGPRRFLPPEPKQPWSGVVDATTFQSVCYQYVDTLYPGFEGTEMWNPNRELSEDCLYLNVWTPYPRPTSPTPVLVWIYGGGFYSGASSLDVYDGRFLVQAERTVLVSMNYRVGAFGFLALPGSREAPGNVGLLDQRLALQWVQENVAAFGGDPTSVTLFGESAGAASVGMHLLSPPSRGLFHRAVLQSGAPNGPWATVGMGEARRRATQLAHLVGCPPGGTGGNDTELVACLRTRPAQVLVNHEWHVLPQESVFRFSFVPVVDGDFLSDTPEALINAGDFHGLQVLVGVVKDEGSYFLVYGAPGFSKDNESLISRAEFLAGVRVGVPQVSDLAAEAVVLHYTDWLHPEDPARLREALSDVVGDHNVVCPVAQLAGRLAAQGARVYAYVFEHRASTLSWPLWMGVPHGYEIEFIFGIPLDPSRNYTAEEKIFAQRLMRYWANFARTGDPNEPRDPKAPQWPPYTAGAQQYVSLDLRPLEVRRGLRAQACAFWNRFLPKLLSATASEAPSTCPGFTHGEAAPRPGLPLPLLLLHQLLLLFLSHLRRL
BuChE, sequence (P06276 29-602): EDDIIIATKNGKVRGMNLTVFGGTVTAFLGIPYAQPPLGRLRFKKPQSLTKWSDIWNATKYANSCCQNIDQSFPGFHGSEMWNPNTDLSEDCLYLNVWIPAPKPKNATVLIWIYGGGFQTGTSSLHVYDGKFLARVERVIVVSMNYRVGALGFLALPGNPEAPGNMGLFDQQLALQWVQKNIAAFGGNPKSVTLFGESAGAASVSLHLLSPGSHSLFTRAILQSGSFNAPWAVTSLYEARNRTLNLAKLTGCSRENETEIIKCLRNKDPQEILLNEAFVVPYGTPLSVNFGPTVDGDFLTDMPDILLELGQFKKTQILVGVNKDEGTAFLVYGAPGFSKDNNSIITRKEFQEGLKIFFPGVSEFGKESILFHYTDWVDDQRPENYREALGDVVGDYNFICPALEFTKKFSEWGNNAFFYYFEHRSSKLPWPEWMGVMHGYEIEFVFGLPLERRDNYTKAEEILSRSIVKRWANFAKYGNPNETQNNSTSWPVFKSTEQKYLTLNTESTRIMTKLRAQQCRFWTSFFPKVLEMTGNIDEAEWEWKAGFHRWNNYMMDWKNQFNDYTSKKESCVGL
T1 sequence (P05067 672-713 limits assumed): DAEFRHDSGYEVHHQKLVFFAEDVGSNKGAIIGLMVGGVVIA
T3 sequence (P22303 32-617 isoform P22303-2 limits assumed): as the sequence (P22303 32-617 isoform P22303-2 limits assumed) above
T2 sequence (P06276 29-602): as the sequence (P06276 29-602) above

In the case of `O=C(CCCN1CCC(O)(c2ccc(Br)cc2)CC1)c1ccc(F)cc1` [Bromperidol, bromperidol], the “astrocyte viability under AAPH” value (astrocytes) is reported as 68.9%, the “percentage value of Aβ inhibition” value ([1]; 12.5 μg/L, 48 h, compared with the control (100% Aβ aggregation)) is reported as 51.2% and the “effect on Aβ aggregation after a longer incubation time” value ([1]; 24 and 48 h, both tested concentrations) is reported as “substantially inhibit”. The BuChE reaction velocity [2] was 0.230 ± 0.023 A/min, the “viability of HUVEC under AAPH” value (HUVEC cells; TPC (bromperidol 25 μg/L, quetiapine 400 μg/L)) was 82.5% and the “viability of HUVEC under AAPH” value (HUVEC cells; ½ × TPC (bromperidol 12.5 μg/L, quetiapine 200 μg/L)) was 66.8%. For the same compound, the “CI (combination index), AChE” value (AChE; donepezil 0.005 μmol/L + antipsychotic at TPCmax, CI < 1 synergism, > 1 antagonism) was 0.07, the “CI (combination index), AChE” value (AChE; donepezil 0.01 μmol/L + antipsychotic at TPCmax) was 0.78 and the “CI (combination index), AChE” value (AChE; donepezil 0.02 μmol/L + antipsychotic at TPCmax) was 0.81. For the same compound, the “CI (combination index), AChE” value (AChE; donepezil 0.05 μmol/L + antipsychotic at TPCmax) was 0.81, the “CI (combination index), AChE” value (AChE; donepezil 0.1 μmol/L + antipsychotic at TPCmax) was 0.80 and the “CI (combination index), AChE” value (AChE; [6]) was 0.32. The “CI (combination index), AChE” value (AChE; rivastigmine 10 μmol/L + antipsychotic at TPCmax) was 0.38, the “CI (combination index), AChE” value (AChE; rivastigmine 15 μmol/L + antipsychotic at TPCmax) was 0.46 and the “CI (combination index), AChE” value (AChE; rivastigmine 25 μmol/L + antipsychotic at TPCmax) was 0.50. For the same compound, the “CI (combination index), AChE” value (AChE; rivastigmine 40 μmol/L + antipsychotic at TPCmax) was 0.53, the “CI (combination index), AChE” value (AChE; rivastigmine 50 μmol/L + antipsychotic at TPCmax) was 0.49 and the “CI (combination index), AChE” value (AChE; rivastigmine 75 μmol/L + antipsychotic at TPCmax) was 0.55. The “CI (combination index), AChE” value (AChE; rivastigmine 100 μmol/L + antipsychotic at TPCmax) was 0.60, the “CI (combination index), BuChE” value (BuChE [3]; donepezil 2 μmol/L + antipsychotic at TPCmax) was 0.43 and the “CI (combination index), BuChE” value (BuChE [3]; donepezil 5 μmol/L + antipsychotic at TPCmax) was 0.52. For the same compound, the “CI (combination index), BuChE” value (BuChE [3]; donepezil 10 μmol/L + antipsychotic at TPCmax) was 0.57, the “CI (combination index), BuChE” value (BuChE [3]; donepezil 20 μmol/L + antipsychotic at TPCmax) was 0.70 and the “CI (combination index), BuChE” value (BuChE [3]; donepezil 100 μmol/L + antipsychotic at TPCmax) was 0.89. The “CI (combination index), BuChE” value (BuChE [3]; rivastigmine 0.05 μmol/L + antipsychotic at TPCmax) was 0.18, the “CI (combination index), BuChE” value (BuChE [3]; rivastigmine 0.1 μmol/L + antipsychotic at TPCmax) was 0.30 and the “CI (combination index), BuChE” value (BuChE [3]; rivastigmine 0.25 μmol/L + antipsychotic at TPCmax) was 0.57. The “CI (combination index), BuChE” value (BuChE [3]; rivastigmine 0.5 μmol/L + antipsychotic at TPCmax) was 0.74, the “CI (combination index), BuChE” value (BuChE [3]; rivastigmine 0.75 μmol/L + antipsychotic at TPCmax) was 0.86 and the “CI (combination index), BuChE” value (BuChE [3]; rivastigmine 1 μmol/L + antipsychotic at TPCmax) was 0.92. The “CI (combination index), BuChE” value (BuChE [3]; rivastigmine 2.5 μmol/L + antipsychotic at TPCmax) was 0.96, the “CI (combination index), BuChE” value (BuChE [3]; [6]) was 0.96 and the AChE reaction velocity [4] was 0.228 ± 0.029 A/min.

Source: PMC9102502, “The Influence of Selected Antipsychotic Drugs on Biochemical Aspects of Alzheimer’s Disease” (International Journal of Molecular Sciences, 2022)
